In US20170050957A1, “4-AMINO-6-(HETEROCYCLIC)PICOLINATES AND 6-AMINO-2-(HETEROCYCLIC)PYRIMIDINE-4-CARBOXYLATES AND THEIR USE AS HERBICIDES” (Dow AgroSciences LLC, priority 2013, published 2017):
Read-outs that look alike come from different tables or passages of the source.

Tests used:
[1] = system: Key Grass and Sedge Weeds as well as Grass Crops; experiment: Post-emergent Test II herbicidal activity (Table 16); type: in vivo; details: post-emergence, 336 h, 14 d; for pest or weed control at 35 g/ha: 35 g ai/ha; for pest or weed control at 70 g/ha: 70 g ai/ha; for pest or weed control at 140 g/ha: 140 g ai/ha
Procedure, shortened: (§1)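 Plants at first-second true leaf stage, grown 7-21 d in greenhouse (~15 h photoperiod, 23-29 °C day), were track-sprayed at 187 L/ha with compound in acetone/DMSO/water/isopropanol/crop oil/Triton X-155 at a high rate plus 1/2× to 1/16× dilutions. Injury scored visually after 14 d versus untreated plants, 0 (none) to 100% (complete kill).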

[2] = system: Key Broadleaf Weed and Crop Species; experiment: Post-emergent Test II herbicidal activity (Table 15); type: in vivo; details: post-emergence, 336 h, 14 d; for pest or weed control at 35 g/ha: 35 g ai/ha; for pest or weed control at 70 g/ha: 70 g ai/ha; for pest or weed control at 140 g/ha: 140 g ai/ha
Procedure, shortened: as §1

[3] = Cyperus esculentus, yellow nutsedge (Cyperus esculentus), read-out: Visual Growth Reduction (%) 14 Days After Application, CYPES
[4] = Echinochloa crus-galli, barnyardgrass (Echinochloa crus-galli), read-out: Visual Growth Reduction (%) 14 Days After Application, ECHCG
[5] = Oryza sativa, rice (Oryza sativa), read-out: Visual Growth Reduction (%) 14 Days After Application, ORYSA
[6] = Setaria faberi, giant foxtail (Setaria faberi), read-out: Visual Growth Reduction (%) 14 Days After Application, SETFA
[7] = Triticum aestivum, wheat, spring (Triticum aestivum), read-out: Visual Growth Reduction (%) 14 Days After Application, TRZAS
[8] = Zea mays, maize, corn (Zea mays), read-out: Visual Growth Reduction (%) 14 Days After Application, ZEAMX
[9] = Abutilon theophrasti, velvetleaf (Abutilon theophrasti), read-out: Visual Growth Reduction (%) 14 Days After Application, ABUTH
[10] = Amaranthus retroflexus, redroot pigweed (Amaranthus retroflexus), read-out: Visual Growth Reduction (%) 14 Days After Application, AMARE
[11] = Brassica napus, oilseed rape, canola (Brassica napus), read-out: Visual Growth Reduction (%) 14 Days After Application, BRSNN
[12] = Chenopodium album, lambsquarters (Chenopodium album), read-out: Visual Growth Reduction (%) 14 Days After Application, CHEAL
[13] = Euphorbia heterophylla, wild poinsettia (Euphorbia heterophylla), read-out: Visual Growth Reduction (%) 14 Days After Application, EPHHL
[14] = Helianthus annuus, sunflower (Helianthus annuus), read-out: Visual Growth Reduction (%) 14 Days After Application, HELAN

SMILES: COC(=O)c1nc(-c2ccc3ccoc3c2F)nc(N)c1OC [Compound 2.13]
- melting point: 178 °C
- pest or weed control at 35 g/ha [1, 3]: 30 to 44%
- pest or weed control at 70 g/ha [1, 3]: 85 to 94%
- pest or weed control at 140 g/ha [1, 3]: 85 to 94%
- pest or weed control at 35 g/ha [1, 4]: 75 to 84%
- pest or weed control at 70 g/ha [1, 4]: 95 to 100%
- pest or weed control at 140 g/ha [1, 4]: 95 to 100%
- pest or weed control at 35 g/ha [1, 5]: 0 to 29%
- pest or weed control at 70 g/ha [1, 5]: 30 to 44%
- pest or weed control at 140 g/ha [1, 5]: 30 to 44%
- pest or weed control at 35 g/ha [1, 6]: 0 to 29%
- pest or weed control at 70 g/ha [1, 6]: 45 to 59%
- pest or weed control at 140 g/ha [1, 6]: 60 to 74%
- pest or weed control at 35 g/ha [1, 7]: 0 to 29%
- pest or weed control at 70 g/ha [1, 7]: 45 to 59%
- pest or weed control at 140 g/ha [1, 7]: 45 to 59%
- pest or weed control at 35 g/ha [1, 8]: 0 to 29%
- pest or weed control at 70 g/ha [1, 8]: 30 to 44%
- pest or weed control at 140 g/ha [1, 8]: 45 to 59%
- pest or weed control at 35 g/ha [2, 9]: 95 to 100%
- pest or weed control at 70 g/ha [2, 9]: 95 to 100%
- pest or weed control at 140 g/ha [2, 9]: 95 to 100%
- pest or weed control at 35 g/ha [2, 10]: 60 to 74%
- pest or weed control at 70 g/ha [2, 10]: 95 to 100%
- pest or weed control at 140 g/ha [2, 10]: 95 to 100%
- pest or weed control at 35 g/ha [2, 11]: 95 to 100%
- pest or weed control at 70 g/ha [2, 11]: 95 to 100%
- pest or weed control at 140 g/ha [2, 11]: 95 to 100%
- pest or weed control at 35 g/ha [2, 12]: 95 to 100%
- pest or weed control at 70 g/ha [2, 12]: 95 to 100%
- pest or weed control at 140 g/ha [2, 12]: 95 to 100%
- pest or weed control at 35 g/ha [2, 13]: 95 to 100%
- pest or weed control at 70 g/ha [2, 13]: 95 to 100%
- pest or weed control at 140 g/ha [2, 13]: 95 to 100%
- pest or weed control at 35 g/ha [2, 14]: 75 to 84%
- pest or weed control at 70 g/ha [2, 14]: 85 to 94%
- pest or weed control at 140 g/ha [2, 14]: 95 to 100%

SMILES: COC(=O)c1nc(-c2ccc(Cl)c3occc23)c(F)c(N)c1Cl [Compound 2.16, Methyl 4-amino-3-chloro-6-(7-chlorobenzofuran-4-yl)-5-fluoropicolinate]
- melting point: 184 to 186 °C
- pest or weed control at 35 g/ha [1, 3]: 0 to 29%
- pest or weed control at 70 g/ha [1, 3]: 0 to 29%
- pest or weed control at 140 g/ha [1, 3]: 0 to 29%
- pest or weed control at 35 g/ha [1, 4]: 0 to 29%
- pest or weed control at 70 g/ha [1, 4]: 0 to 29%
- pest or weed control at 140 g/ha [1, 4]: 0 to 29%
- pest or weed control at 35 g/ha [1, 5]: 0 to 29%
- pest or weed control at 70 g/ha [1, 5]: 0 to 29%
- pest or weed control at 140 g/ha [1, 5]: 0 to 29%
- pest or weed control at 35 g/ha [1, 6]: 0 to 29%
- pest or weed control at 70 g/ha [1, 6]: 0 to 29%
- pest or weed control at 140 g/ha [1, 6]: 0 to 29%
- pest or weed control at 35 g/ha [1, 7]: 0 to 29%
- pest or weed control at 70 g/ha [1, 7]: 0 to 29%
- pest or weed control at 140 g/ha [1, 7]: 0 to 29%
- pest or weed control at 35 g/ha [1, 8]: 45 to 59%
- pest or weed control at 70 g/ha [1, 8]: 95 to 100%
- pest or weed control at 140 g/ha [1, 8]: 95 to 100%
- pest or weed control at 35 g/ha [2, 9]: 85 to 94%
- pest or weed control at 70 g/ha [2, 9]: 95 to 100%
- pest or weed control at 140 g/ha [2, 9]: 95 to 100%
- pest or weed control at 35 g/ha [2, 10]: 95 to 100%
- pest or weed control at 70 g/ha [2, 10]: 95 to 100%
- pest or weed control at 140 g/ha [2, 10]: 95 to 100%
- pest or weed control at 35 g/ha [2, 11]: 45 to 59%
- pest or weed control at 70 g/ha [2, 11]: 60 to 74%
- pest or weed control at 140 g/ha [2, 11]: 60 to 74%
- pest or weed control at 35 g/ha [2, 12]: 95 to 100%
- pest or weed control at 70 g/ha [2, 12]: 95 to 100%
- pest or weed control at 140 g/ha [2, 12]: 95 to 100%
- pest or weed control at 35 g/ha [2, 13]: 0 to 29%
- pest or weed control at 70 g/ha [2, 13]: 0 to 29%
- pest or weed control at 140 g/ha [2, 13]: 0 to 29%
- pest or weed control at 35 g/ha [2, 14]: 95 to 100%
- pest or weed control at 70 g/ha [2, 14]: 95 to 100%
- pest or weed control at 140 g/ha [2, 14]: 95 to 100%
